In assay [1] the test system is P. aeruginosa CDC-0090. The experiment in a line: microbe, parasite or virus in culture. To be noted: Pseudomonas aeruginosa, CDC0090, read-out: Minimum inhibitory concentration, P. aeruginosa CDC-0090. The assay is classed as cell-based.
In assay [2] the test system is A. baumannii 1258916. The experiment in a line: microbe, parasite or virus in culture. Format: cell-based, Acinetobacter baumannii. To be noted: Acinetobacter baumannii, 1258916, read-out: MIC, A. baumannii 1258916.
Assay [3] has as its system A. baumannii CDC-0083. The experiment in a line: microbe, parasite or virus in culture. The assay is classed as cell-based. To be noted: Acinetobacter baumannii, CDC0083, read-out: MIC, A. baumannii CDC-0083.
The subject of assay [4] is N. gonorrhoeae WHO K. Briefly: Liquid broth MIC in Fastidious broth. To be noted: Neisseria gonorrhoeae, read-out: Minimum Inhibitory Concentration (MIC), N. gonorrhoeae WHO K.
Assay [5] concerns A. baumannii CDC-0033. The experiment in a line: microbe, parasite or virus in culture. The assay is classed as cell-based. To be noted: Acinetobacter baumannii, CDC0033, read-out: MIC, A. baumannii CDC-0033.
Assay [6] deals with A. baumannii ATCC 17978. The experiment in a line: microbe, parasite or virus in culture. Format: cell-based. The note with it: Acinetobacter baumannii, ATCC17978, read-out: MIC, A. baumannii ATCC 17978.
Assay [7] relates to N. gonorrhoeae WHO X. The experiment in a line: Liquid broth MIC in Fastidious broth. The note with it: Neisseria gonorrhoeae, read-out: Minimum Inhibitory Concentration (MIC), N. gonorrhoeae WHO X.
Assay [8] addresses T1, PBP3 from Acinetobacter baumannii (ATCC 19606) (Acinetobacter baumannii, UniProt A0ABX6CK25).
T1 sequence (A0ABX6CK25 64-610): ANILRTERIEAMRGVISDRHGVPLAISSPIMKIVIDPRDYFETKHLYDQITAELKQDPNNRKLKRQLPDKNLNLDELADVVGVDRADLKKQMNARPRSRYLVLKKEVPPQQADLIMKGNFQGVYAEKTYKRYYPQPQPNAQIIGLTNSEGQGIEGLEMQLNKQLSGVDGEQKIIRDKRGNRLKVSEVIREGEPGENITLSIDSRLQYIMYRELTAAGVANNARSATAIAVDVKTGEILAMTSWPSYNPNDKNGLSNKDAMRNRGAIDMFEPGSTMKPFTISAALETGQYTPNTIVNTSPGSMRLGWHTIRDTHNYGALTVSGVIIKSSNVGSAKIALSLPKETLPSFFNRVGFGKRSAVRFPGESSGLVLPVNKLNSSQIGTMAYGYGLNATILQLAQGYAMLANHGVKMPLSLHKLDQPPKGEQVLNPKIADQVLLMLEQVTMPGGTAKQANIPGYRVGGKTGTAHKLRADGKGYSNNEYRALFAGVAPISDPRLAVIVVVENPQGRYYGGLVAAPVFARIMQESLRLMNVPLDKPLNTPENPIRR
Briefly: Bocillin-FL fluorescence polarization competition binding, A. baumannii PBP3. To be noted: fluorescence polarization competition binding assay using Bocillin-FL; read-out: A. baumannii PBP3 Potency. The gist of the method:
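Purified PBP was preincubated with inhibitor (E. coli PBP3 1.5 μM, 30 min; P. aeruginosa PBP3 0.75 μM, A. baumannii PBP3 0.2 μM and PBP1a 1 μM, 15 min), then Bocillin-FL (0.1 μM; 0.05 μM for PBP1a) added and FP read up to 60 min. EC50 = 50% loss of bound probe.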
A general note: Polarisation of emitted light reports the rotation of a fluorescent probe.

Assay [9] deals with N. gonorrhoeae WHO M. Briefly: Liquid broth MIC in Fastidious broth. The note with it: Neisseria gonorrhoeae, read-out: Minimum Inhibitory Concentration (MIC), N. gonorrhoeae WHO M.
Assay [10] deals with P. aeruginosa CDC-0110. The experiment in a line: microbe, parasite or virus in culture. The assay is classed as cell-based. To be noted: Pseudomonas aeruginosa, CDC0110, read-out: Minimum inhibitory concentration, P. aeruginosa CDC-0110.
Assay [11] concerns P. aeruginosa CDC-0095. The experiment in a line: microbe, parasite or virus in culture. Format: cell-based. The note with it: Pseudomonas aeruginosa, CDC0095, read-out: Minimum inhibitory concentration, P. aeruginosa CDC-0095.

pIC50: −log10 of the molar value. Converted amounts (≈) assume the structure as drawn. Bounds are passed on as bounds.

On to `O=C(CN1CCN(C(=O)N[C@@H](C(=O)N[C@H]2Cc3ccc(F)c(C(=O)O)c3OB2O)c2cc(F)c(O)c(O)c2Cl)C(=O)C1=O)NCc1ccncc1` [Example 239, (R)-3-((R)-2-(2-chloro-5-fluoro-3,4-dihydroxyphenyl)-2-(2,3-dioxo-4-(2-oxo-2-((pyridin-4-ylmethyl)amino)ethyl)piperazine-1-carboxamido)acetamido)-7-fluoro-2-hydroxy-3,4-dihydro-2H-benzo[e][1,2]oxaborinine-8-carboxylic acid], for which the MIC in assay [1] was 2 to 4 µg/mL (≈ 2.74 to 5.47 µM); in assay [2], less than 1 µg/mL; in [3], less than 1 µg/mL; in [4], greater than 64 µg/mL; in assay [5], 8 to 16 µg/mL (≈ 10.9 to 21.9 µM); in assay [6] it was less than 1 µg/mL. Moreover, the MIC was greater than 64 µg/mL in assay [7], 4 to 8 µg/mL (≈ 5.47 to 10.9 µM) in assay [9], less than 1 µg/mL in [10] and 2 to 4 µg/mL (≈ 2.74 to 5.47 µM) in [11]. Also, in [8], the pIC50 is greater than 5.00.
As for `O=C(CN1CCN(C(=O)NC(C(=O)N[C@H]2Cc3ccc(F)c(C(=O)O)c3OB2O)c2cc(F)c(O)c(O)c2Cl)C(=O)C1=O)NCc1cccnc1` (stereo partly drawn) [Example 240, (3R)-3-(2-(2-chloro-5-fluoro-3,4-dihydroxyphenyl)-2-(2,3-dioxo-4-(2-oxo-2-((pyridin-3-ylmethyl)amino)ethyl)piperazine-1-carboxamido)acetamido)-7-fluoro-2-hydroxy-3,4-dihydro-2H-benzo[e][1,2]oxaborinine-8-carboxylic acid], the MIC in assay [1] is 2 to 4 µg/mL (≈ 2.74 to 5.47 µM); in [2] it was less than 1 µg/mL; in [3] it was greater than 128 µg/mL; in assay [4], greater than 64 µg/mL; in assay [5], 2 to 4 µg/mL (≈ 2.74 to 5.47 µM); in [6], less than 1 µg/mL. In addition, the MIC in [7] is greater than 64 µg/mL; in assay [9], 4 to 8 µg/mL (≈ 5.47 to 10.9 µM); in assay [10], less than 1 µg/mL; in [11], 2 to 4 µg/mL (≈ 2.74 to 5.47 µM). In addition, the pIC50 in assay [8] is greater than 5.00.
`O=C(CN1CCN(C(=O)N[C@@H](C(=O)N[C@H]2Cc3ccc(F)c(C(=O)O)c3OB2O)c2cc(F)c(O)c(O)c2Cl)C(=O)C1=O)NCc1nccs1` [Example 241, (R)-3-((R)-2-(2-chloro-5-fluoro-3,4-dihydroxyphenyl)-2-(2,3-dioxo-4-(2-oxo-2-((thiazol-2-ylmethyl)amino)ethyl)piperazine-1-carboxamido)acetamido)-7-fluoro-2-hydroxy-3,4-dihydro-2H-benzo[e][1,2]oxaborinine-8-carboxylic acid]: the MIC was 2 to 4 µg/mL (≈ 2.71 to 5.43 µM) in [1]; less than 1 µg/mL in assay [2]; greater than 128 µg/mL in assay [3]; 16 to 32 µg/mL (≈ 21.7 to 43.4 µM) in [4]; 8 to 16 µg/mL (≈ 10.9 to 21.7 µM) in [5]; less than 1 µg/mL in assay [6]. The MIC in [7] was greater than 64 µg/mL; in assay [9], 4 to 8 µg/mL (≈ 5.43 to 10.9 µM); in assay [10], less than 1 µg/mL; in assay [11], 2 to 4 µg/mL (≈ 2.71 to 5.43 µM). The pIC50 in [8] is greater than 5.00.
For `O=C(NCCN1CCN(C(=O)NC(C(=O)N[C@H]2Cc3ccc(F)c(C(=O)O)c3OB2O)c2cc(F)c(O)c(O)c2Cl)C1=O)c1ccccc1` (stereo partly drawn) [Example 242, (3R)-3-(2-(3-(2-benzamidoethyl)-2-oxoimidazolidine-1-carboxamido)-2-(2-chloro-5-fluoro-3,4-dihydroxyphenyl)acetamido)-7-fluoro-2-hydroxy-3,4-dihydro-2H-benzo[e][1,2]oxaborinine-8-carboxylic acid], the MIC in [1] was less than 1 µg/mL; in [2] it was less than 1 µg/mL; in assay [3], 2 to 4 µg/mL (≈ 2.85 to 5.7 µM); in assay [4] it was greater than 64 µg/mL; in [5], 2 to 4 µg/mL (≈ 2.85 to 5.7 µM); in assay [6], less than 1 µg/mL. For the same compound, the MIC in assay [7] is greater than 64 µg/mL; in [9] it was 16 to 32 µg/mL (≈ 22.8 to 45.6 µM); in [10], 2 to 4 µg/mL (≈ 2.85 to 5.7 µM); in assay [11], 2 to 4 µg/mL (≈ 2.85 to 5.7 µM). Besides, the pIC50 in [8] is greater than 5.00.

For the origin of these results see patent publication US20240270762A1, “PENICILLIN-BINDING PROTEIN INHIBITORS” (priority 2021, published 2024).
